In ChEMBL document CHEMBL1201862, “PubChem BioAssay data set” (2004):
The source made the active and inactive calls.

Key:
[1] = target: T1, Zinc finger protein mex-5 (Caenorhabditis elegans, UniProt Q9XUB2); assay: MEX-5/TCR-2 RNA interaction inhibitors, dose response, biochemical, C. elegans, fluorescence polarization (AID 1960)
T1 sequence (Q9XUB2 whole entry): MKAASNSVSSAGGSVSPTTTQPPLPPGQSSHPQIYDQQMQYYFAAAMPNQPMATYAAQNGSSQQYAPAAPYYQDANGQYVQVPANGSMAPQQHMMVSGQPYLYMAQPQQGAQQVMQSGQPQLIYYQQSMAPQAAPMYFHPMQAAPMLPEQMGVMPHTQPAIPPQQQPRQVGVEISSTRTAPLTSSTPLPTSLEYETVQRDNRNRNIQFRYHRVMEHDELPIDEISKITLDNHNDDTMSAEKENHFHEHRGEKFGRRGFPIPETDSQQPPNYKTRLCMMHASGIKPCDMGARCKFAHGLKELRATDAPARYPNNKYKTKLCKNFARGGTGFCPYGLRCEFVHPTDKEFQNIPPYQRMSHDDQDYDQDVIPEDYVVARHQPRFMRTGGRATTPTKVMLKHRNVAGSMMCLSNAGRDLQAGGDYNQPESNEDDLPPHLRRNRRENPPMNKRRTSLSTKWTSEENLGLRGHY

[2] = target: UDP-galactopyranose mutase (Mycobacterium tuberculosis, UniProt P9WIQ1); assay: Inhibitors of Mycobacterium tuberculosis UDP-galactopyranose mutase (UGM) enzyme Measured in Biochemical System Using Plate Reader - 2105-02_Inhibitor_Dose_CherryPick_Activity. [Related pubchem assays (depositor defined):AID504439]
Chain of UDP-galactopyranose mutase (P9WIQ1 whole entry, the tested form may be a part): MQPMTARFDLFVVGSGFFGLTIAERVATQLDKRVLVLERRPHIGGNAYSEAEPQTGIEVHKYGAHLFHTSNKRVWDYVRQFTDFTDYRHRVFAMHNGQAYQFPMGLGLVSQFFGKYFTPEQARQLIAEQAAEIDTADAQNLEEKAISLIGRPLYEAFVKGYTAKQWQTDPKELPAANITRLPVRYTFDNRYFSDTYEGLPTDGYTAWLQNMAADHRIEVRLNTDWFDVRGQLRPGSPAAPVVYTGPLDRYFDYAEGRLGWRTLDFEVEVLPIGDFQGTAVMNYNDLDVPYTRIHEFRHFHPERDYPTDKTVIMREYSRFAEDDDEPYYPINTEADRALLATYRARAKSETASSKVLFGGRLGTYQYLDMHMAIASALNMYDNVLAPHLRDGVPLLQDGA

[3] = target: T2, RNA-binding protein pos-1 (Caenorhabditis elegans, UniProt G5EF15); assay: inhibitors of POS-1/mex-3 RNA binding, dose response, biochemical, fluorescence polarization (AID 1964);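 also: purified POS-1 fused to maltose binding protein made in E. coli; potency of compounds blocking POS-1 binding to fluorescent RNA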
T2 sequence (G5EF15 whole entry): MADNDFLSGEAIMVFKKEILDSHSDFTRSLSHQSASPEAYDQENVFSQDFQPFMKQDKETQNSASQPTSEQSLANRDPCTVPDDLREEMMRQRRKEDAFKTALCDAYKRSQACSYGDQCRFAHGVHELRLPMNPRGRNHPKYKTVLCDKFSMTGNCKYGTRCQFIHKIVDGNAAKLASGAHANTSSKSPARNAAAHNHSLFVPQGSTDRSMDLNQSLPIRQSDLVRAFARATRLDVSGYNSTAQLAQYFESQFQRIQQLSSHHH

Cytochrome P450 1A2 = target: T3, Cytochrome P450 1A2 (Homo sapiens, UniProt P05177);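 also: PubChem cytochrome P450 panel assay, CYP1A2 panel member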
T3 sequence (P05177 whole entry): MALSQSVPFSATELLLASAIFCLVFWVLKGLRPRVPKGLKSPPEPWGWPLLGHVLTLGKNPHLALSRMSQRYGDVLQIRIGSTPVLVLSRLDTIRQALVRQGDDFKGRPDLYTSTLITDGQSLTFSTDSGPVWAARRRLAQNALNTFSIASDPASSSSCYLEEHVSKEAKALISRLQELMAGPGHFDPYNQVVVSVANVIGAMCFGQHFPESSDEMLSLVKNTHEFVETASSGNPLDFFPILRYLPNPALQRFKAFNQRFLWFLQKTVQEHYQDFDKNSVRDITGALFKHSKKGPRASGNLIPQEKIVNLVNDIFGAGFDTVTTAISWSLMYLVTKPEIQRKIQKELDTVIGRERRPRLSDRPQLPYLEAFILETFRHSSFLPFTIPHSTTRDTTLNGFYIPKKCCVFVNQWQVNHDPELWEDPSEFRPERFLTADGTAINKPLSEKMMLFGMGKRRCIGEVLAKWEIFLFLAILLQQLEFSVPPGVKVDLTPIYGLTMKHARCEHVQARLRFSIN

Cytochrome P450 2D6 = Cytochrome P450 2D6 (Homo sapiens, UniProt P10635);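 also: CYP2D6 member of a cytochrome P450 panel assay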
Chain of Cytochrome P450 2D6 (P10635 whole entry): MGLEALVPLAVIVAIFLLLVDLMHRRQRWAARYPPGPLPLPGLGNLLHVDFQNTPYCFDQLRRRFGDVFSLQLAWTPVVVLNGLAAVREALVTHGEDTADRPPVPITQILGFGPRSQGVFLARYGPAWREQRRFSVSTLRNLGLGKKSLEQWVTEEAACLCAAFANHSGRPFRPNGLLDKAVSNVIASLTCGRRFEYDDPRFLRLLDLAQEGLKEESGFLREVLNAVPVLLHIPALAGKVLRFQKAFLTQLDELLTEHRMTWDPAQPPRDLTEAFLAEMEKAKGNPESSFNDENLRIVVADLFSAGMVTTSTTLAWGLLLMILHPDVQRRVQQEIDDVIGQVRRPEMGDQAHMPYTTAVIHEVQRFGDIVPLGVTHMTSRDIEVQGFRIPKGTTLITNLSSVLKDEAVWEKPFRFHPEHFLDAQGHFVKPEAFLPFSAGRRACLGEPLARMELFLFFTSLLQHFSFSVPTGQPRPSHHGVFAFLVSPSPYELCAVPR

Cytochrome P450 2C19 = Cytochrome P450 2C19 (Homo sapiens, UniProt P33261); assay: Cytochrome panel assay with activity outcomes. Panel member name: p450-cyp2c19 Compounds with AC50 equal or less than 10 uM are considered active; assay type: functional; conditions: read-out: AC50
Chain of Cytochrome P450 2C19 (P33261 whole entry, the tested form may be a part): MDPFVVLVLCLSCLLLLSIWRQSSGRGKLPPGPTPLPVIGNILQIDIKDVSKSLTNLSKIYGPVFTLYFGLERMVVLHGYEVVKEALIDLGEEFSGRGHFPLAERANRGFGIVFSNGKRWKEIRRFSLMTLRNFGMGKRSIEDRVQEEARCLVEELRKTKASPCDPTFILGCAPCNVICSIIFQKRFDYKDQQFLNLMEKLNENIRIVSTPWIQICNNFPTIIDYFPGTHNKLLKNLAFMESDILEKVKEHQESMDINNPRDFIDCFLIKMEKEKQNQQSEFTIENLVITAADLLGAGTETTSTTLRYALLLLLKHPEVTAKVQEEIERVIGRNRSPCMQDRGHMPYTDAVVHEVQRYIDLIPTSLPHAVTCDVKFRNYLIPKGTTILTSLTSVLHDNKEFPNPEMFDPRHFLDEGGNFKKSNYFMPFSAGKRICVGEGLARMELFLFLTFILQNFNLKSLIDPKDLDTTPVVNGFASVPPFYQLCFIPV

Apelin receptor = Apelin receptor (Homo sapiens, UniProt P35414); assay: APJ beta-arrestin recruitment antagonism, SAR follow-up, selectivity assay for CCR6 antagonist project, cell-based, luminescent, enzyme-fragment complementation (AID 588359); assay type: functional
Chain of Apelin receptor (P35414 whole entry, the tested form may be a part): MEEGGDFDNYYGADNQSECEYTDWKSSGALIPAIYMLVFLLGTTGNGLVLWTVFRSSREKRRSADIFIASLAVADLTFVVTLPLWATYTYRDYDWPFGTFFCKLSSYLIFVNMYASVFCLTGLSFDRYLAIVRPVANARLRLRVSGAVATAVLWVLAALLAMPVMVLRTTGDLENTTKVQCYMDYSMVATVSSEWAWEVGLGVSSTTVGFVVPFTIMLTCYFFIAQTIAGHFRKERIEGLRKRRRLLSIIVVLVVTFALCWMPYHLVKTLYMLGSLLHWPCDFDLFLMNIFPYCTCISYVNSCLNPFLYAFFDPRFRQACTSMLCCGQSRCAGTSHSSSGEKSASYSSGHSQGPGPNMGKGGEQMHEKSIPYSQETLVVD

Beta-galactosidase = Beta-galactosidase (Escherichia coli, UniProt Q8VNN2); assay: beta-galactosidase enzyme inhibitors and activators, dose response, artefact control for CCR6 antagonist project, biochemical, E. coli enzyme, set 3 (AID 504712); assay type: functional
Chain of Beta-galactosidase (Q8VNN2 whole entry): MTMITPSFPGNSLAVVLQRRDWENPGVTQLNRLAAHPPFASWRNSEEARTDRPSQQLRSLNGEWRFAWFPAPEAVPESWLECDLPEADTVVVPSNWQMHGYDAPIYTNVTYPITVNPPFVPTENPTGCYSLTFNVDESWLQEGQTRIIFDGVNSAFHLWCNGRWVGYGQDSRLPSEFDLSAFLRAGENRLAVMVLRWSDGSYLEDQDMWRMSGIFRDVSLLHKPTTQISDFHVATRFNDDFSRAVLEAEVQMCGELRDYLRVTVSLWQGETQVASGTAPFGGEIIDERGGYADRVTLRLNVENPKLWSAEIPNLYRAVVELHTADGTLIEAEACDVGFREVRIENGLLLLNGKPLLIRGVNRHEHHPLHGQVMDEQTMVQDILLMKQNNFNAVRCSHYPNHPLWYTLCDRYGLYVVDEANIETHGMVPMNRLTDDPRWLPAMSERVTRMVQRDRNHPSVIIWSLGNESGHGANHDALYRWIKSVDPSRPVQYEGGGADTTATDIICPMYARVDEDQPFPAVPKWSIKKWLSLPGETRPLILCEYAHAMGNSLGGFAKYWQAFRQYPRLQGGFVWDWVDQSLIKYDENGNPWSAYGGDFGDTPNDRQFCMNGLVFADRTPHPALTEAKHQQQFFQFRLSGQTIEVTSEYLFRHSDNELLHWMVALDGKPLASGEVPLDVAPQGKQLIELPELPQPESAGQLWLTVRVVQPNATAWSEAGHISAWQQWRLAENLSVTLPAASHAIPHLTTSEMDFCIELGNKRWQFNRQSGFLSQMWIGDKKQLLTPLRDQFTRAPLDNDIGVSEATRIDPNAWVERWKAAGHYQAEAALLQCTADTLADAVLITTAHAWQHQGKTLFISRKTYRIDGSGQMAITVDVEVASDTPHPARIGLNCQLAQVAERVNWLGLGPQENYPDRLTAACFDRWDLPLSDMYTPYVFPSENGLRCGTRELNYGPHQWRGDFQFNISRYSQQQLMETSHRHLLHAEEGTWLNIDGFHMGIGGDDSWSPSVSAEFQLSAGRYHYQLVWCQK

Keap1/Nrf2 = Keap1/Nrf2 (Homo sapiens, UniProt Q14145); assay: Keap1-Nrf2 protein-protein interaction inhibitors, dose response, biochemical, fluorescence polarization, cherry-picked samples (AID 588683)
Chain of Keap1/Nrf2 (Q16236 whole entry): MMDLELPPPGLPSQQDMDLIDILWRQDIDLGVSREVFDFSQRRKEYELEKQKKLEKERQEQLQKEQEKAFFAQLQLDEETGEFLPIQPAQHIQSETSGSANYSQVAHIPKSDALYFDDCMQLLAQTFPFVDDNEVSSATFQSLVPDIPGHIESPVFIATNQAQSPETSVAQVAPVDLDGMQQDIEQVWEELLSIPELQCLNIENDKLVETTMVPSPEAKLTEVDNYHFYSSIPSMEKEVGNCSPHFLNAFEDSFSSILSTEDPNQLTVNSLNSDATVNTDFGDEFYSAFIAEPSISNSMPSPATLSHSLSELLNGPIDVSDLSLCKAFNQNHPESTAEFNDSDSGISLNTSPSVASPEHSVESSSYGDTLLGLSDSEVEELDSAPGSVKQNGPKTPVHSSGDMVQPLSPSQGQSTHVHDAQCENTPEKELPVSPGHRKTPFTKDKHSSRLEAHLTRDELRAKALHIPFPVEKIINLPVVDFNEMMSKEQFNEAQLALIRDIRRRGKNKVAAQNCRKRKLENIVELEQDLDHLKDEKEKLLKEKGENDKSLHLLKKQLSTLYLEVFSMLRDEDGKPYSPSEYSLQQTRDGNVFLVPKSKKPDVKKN
Chain of Keap1/Nrf2 (Q14145 whole entry): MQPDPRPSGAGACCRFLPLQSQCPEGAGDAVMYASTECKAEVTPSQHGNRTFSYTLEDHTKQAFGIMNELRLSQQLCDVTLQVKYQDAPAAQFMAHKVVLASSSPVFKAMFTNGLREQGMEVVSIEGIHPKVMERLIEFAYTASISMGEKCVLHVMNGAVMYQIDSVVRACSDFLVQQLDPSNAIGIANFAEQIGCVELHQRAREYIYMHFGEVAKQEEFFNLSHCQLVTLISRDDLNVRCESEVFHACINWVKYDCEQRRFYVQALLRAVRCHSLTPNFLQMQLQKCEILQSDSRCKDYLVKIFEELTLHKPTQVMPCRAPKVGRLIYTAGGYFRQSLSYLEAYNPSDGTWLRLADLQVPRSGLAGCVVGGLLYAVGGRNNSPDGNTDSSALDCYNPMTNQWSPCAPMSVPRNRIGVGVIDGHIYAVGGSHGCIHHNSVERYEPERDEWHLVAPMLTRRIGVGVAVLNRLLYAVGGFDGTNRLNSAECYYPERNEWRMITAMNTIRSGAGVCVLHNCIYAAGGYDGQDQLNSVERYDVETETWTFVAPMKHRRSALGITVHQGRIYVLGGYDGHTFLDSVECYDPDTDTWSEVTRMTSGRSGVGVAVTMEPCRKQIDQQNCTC

[4] = inhibitors of firefly luciferase expression or activity, dose response, H4 neuroglioma cells, luminescence (AID 1990); assay type: functional, cell-based
[5] = target: C-C chemokine receptor type 6 (Homo sapiens, UniProt P51684); assay: CCR6 receptor antagonists, dose response, cell-based, luminescent beta-arrestin readout (AID 504728); assay type: functional
Chain of C-C chemokine receptor type 6 (P51684 whole entry): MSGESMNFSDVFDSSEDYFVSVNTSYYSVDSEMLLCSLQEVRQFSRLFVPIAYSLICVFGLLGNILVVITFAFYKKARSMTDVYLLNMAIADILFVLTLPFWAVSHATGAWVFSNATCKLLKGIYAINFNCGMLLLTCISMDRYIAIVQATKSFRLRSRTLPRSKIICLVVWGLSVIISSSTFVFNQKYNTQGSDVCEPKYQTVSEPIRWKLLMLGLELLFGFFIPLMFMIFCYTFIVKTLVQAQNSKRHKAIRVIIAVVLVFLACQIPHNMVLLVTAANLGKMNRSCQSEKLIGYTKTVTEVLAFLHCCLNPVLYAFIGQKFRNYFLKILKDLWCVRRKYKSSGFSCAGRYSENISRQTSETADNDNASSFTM

HEK293 [6] = assay: cells; conditions: Homo sapiens
[7] = Luminescence Cell-Based Dose Response HTS to Identify Inhibitors of 5'UTR Stem-Loop Driven Prion Protein mRNA Translation in H4 Neuroglioblastoma Cells. [Related pubchem assays: 1827 (Project Summary), 1813 (Primary HTS)]; assay type: functional
[8] = inhibitors of SNCA 5'UTR-driven reporter translation, confirmation, H4 neuroglioma cells, luminescence (AID 1988); assay type: functional, cell-based
Streptokinase A = target: T4, Streptokinase A (Streptococcus pyogenes serotype M1, UniProt P10520); assay: S. pyogenes streptokinase expression inhibitors, potency, dose response, plasminogen activation absorbance, OD405 (AID 1914); assay type: functional, Streptococcus pyogenes M1 GAS;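 also: secreted streptokinase activity via plasminogen activation per viability signal from cell pellet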
T4 sequence (P10520 whole entry): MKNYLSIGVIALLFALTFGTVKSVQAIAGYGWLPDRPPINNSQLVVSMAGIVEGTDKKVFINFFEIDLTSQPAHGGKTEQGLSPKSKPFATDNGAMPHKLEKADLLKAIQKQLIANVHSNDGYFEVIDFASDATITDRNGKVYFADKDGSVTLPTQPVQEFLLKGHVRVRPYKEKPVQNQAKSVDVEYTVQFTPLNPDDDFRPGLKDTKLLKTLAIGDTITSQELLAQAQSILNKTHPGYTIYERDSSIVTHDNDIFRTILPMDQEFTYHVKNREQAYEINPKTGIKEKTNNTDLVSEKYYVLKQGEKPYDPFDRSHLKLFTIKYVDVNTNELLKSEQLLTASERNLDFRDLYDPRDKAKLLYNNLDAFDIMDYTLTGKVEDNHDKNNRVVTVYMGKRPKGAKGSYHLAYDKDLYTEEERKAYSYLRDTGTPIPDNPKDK

Streptococcus = assay: Group A Streptococcus viability loss, dose response, counter-screen for streptokinase expression inhibitor project, luminescence, BacTiterGlo (AID 1915); assay type: functional, organism-based;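 also: potency for reduction of bacterial viability or growth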
[9] = microbe, parasite or virus in culture; assay type: functional; conditions: Mycobacterium tuberculosis
INS1 = assay: beta cell apoptosis inhibitors, cytokine rescue, dose response, luminescence, retest (AID 449756); assay type: functional, cell-based; conditions: Rattus norvegicus;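 also: cell death triggered by IL-1 beta plus TNF-alpha plus IFN-gamma mixture; protective hits raise ATP signal compared with cytokine alone wells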
[10] = tested on: Streptococcus sp. 'group A'; assay: growth inhibition of control SK(-) GAS strain, dose response, counter-screen for streptokinase expression inhibitor project, luminescence, kanamycin, BacTiterGlo, confirmation (AID 1900); assay type: functional, organism-based
HEK293 [11] = assay: cells; conditions: Homo sapiens; remark: listed apart in the source

COC(=O)Cn1cc(C=C2C(=O)N(C)C(=O)N(C)C2=O)c2ccccc21
EC50 [1]: 2.85 µM (inconclusive) | AC50 [2]: 129 µM (active) | EC50 [3]: 3.15 µM (inconclusive)

COc1ccc(-c2oc3ccccc3c(=O)c2OC(=O)c2ccc(C)cc2)cc1
AC50 (Cytochrome P450 1A2): 1.41 µM (inconclusive) | AC50 (Cytochrome P450 2D6): inconclusive | AC50 (Cytochrome P450 2C19): 1 µM (inconclusive)

CCOC(=O)N1CCN(C(=O)C2CCN(C(=O)c3ccccc3C)CC2)CC1
IC50 (Apelin receptor): > 66.6 µM (inactive) | IC50 (Beta-galactosidase): > 66.6 µM (inactive)

Cc1ccc(S(=O)(=O)Nc2cccc(S(=O)(=O)Nc3ccccc3C(=O)O)c2)c(C)c1
AC50 (Keap1/Nrf2): > 52 µM (inactive)

COc1cccc(/C=N/Nc2nc(Nc3ccccc3)nc(-n3nc(C)cc3C)n2)c1O
EC50 [4]: 52.9 µM (active) | IC50 [5]: > 66.6 µM (inactive) | EC50 (HEK293 [6]): > 59.6 µM (inactive) | EC50 [7]: 0.127 µM (active) | EC50 [8]: 8.28 µM (active) | EC50 (Streptokinase A): > 150 µM (not active) | IC50 (Beta-galactosidase): > 66.6 µM (inactive) | EC50 (Streptococcus): 4.15 µM (active) | CC50 [9]: 8.56 µM (active) | AC50 (INS1): 0.535 µM (active) | EC50 [10]: 1.7 µM (active) | EC50 (HEK293 [11]): > 59.6 µM (inactive)
